The values below come from PMC6769917, “Glycan Binding Profiling of Jacalin-Related Lectins from the Pteria Penguin Pearl Shell” (International Journal of Molecular Sciences, 2019).

The target in the experiment is T1, PPL4 (Pteria penguin, UniProt B6F0T8+B6F0T9).
T1 construct: gene PPL4-a; native, purified from mantle secretory fluid; mature 148 residues per subunit, 16 kDa; disulfide-linked heterodimer 32 kDa (head-to-head, N-terminal bond); N-termini […]; (alpha), […]; (beta)
Description: hemagglutination inhibition, rabbit erythrocytes, purified lectin. It is filed as cell-based. The settings on record: 0.15 M NaCl; hemagglutination titer 2^−3; 2% rabbit erythrocytes. From the text: hemagglutination inhibition, rabbit erythrocytes, purified lectin on PPL4

T1 sequence (B6F0T8 entry or part of it): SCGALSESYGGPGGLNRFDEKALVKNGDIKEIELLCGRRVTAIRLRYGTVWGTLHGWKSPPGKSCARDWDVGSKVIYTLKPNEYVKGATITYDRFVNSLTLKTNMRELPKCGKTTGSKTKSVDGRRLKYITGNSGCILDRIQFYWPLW
T1 sequence (B6F0T9 entry or part of it): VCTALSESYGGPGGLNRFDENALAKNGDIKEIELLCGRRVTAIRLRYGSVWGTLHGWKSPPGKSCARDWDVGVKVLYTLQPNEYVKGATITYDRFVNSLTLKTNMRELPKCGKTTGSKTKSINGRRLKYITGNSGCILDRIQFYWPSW

In the case of `OCC1(O)OC[C@@H](O)[C@@H](O)[C@@H]1O` (stereo partly drawn) [D-Fructose], the PPL3 worked out at 50 mM.

In turn, `OC[C@H]1O[C@H](OC[C@H]2OC(O)[C@H](O)[C@@H](O)[C@@H]2O)[C@H](O)[C@@H](O)[C@@H]1O` (some centres unmarked) [Isomaltose] came in with a PPL4 of more than 200 mM.

`OC[C@H]1O[C@H](O[C@H]2C(O)O[C@H](CO)[C@@H](O)[C@@H]2O)[C@H](O)[C@@H](O)[C@@H]1O` (some centres unmarked) [Kojibiose] registered a PPL4 of 100 mM.

Take `CC(=O)N[C@H]1C(O)O[C@H](CO)[C@@H](O)[C@@H]1O` (stereo partly drawn) [N-Acetyl-D-glucosamine]: the PPL4 worked out at 6.25 mM.

`OC[C@H]1O[C@H](O[C@H]2O[C@H](CO)[C@@H](O)[C@H](O)[C@H]2O)[C@H](O)[C@@H](O)[C@@H]1O` [Trehalose] showed a PPL4 of 100 mM.
